From paper PMC4373826, “Antiviral Effect of Methylated Flavonol Isorhamnetin against Influenza” (PLoS ONE, 2015)

Assays:
[1] = biological target: T1, influenza virus neuraminidase (Influenza A virus, UniProt P03468); test: Neuraminidase inhibition (NAI) assay; assay type: biochemical; settings: 50 μM
T1 construct: mixed with an equal volume of the virus solution (50 μL); host or cells: whole virus suspension
Experimental: The neuraminidase inhibition assay was carried out to examine the inhibitory effect of the tested flavonoids on influenza virus neuraminidase activity as described previously. The flavonoid compounds were used at concentrations of 10 μM, 50 μM, and 100 μM. Tamiflu, a specific NA blocker, was used as a control with a dose of 1 μM. This assay was conducted in 96-well plates; each flavonoid concentration (50 μL) was mixed with an equal volume of the virus solution (50 μL) using reaction buffer (sodium acetate buffer 150 mM, pH 7, and 1 mM calcium chloride) and incubated for 30 minutes at 37°C. For initiation of the enzymatic reaction, we added 100 μL of the substrate solution (4-MU-NANA; (2′-(4-methylumbelliferyl)-α-d-N-acetylneuraminic acid, sodium salt hydrate; Sigma-Aldrich) that dissolved in the enzyme buffer [33 mM 2-(N-morpholino) ethanesulfonic acid (MES), pH 6.5, and 4 mM CaCl2] to the final concentration of 100 μM to the flavonoids and the virus mixture (100 μL). This reaction mixture was protected from light and incubated at 37°C for 2 hr under shaking condition. For stopping of the reaction, we added the stop solution (150 μl of 0.014 N NaOH in 83% ethanol) to each well. The fluorescence of the released 4-methylumbelliferone fluorescence was measured using a fluorescence plate reader (Molecular Devices, Sunnyvale, CA, USA) (excitation 365 nm, emission 460 nm). […]

[2] = test system: influenza A/PR/8/34 (H1N1); test: in vitro; settings: dog, SI (selective index, CC50/EC50)
LC3B = test: Western blot for LC3B lipidation; assay type: cell-based, canine; settings: 50 μM; post-treatment
Description: Autophagy can also be measured by changes in LC3B localization, because the degree of conversion of LC3B-I to LC3B-II provides an indicator of autophagic activity. Western blotting detected LC3B as 2 bands: cytosolic LC3B-I and membrane-bound LC3B-II (which is bound to the autophagosome membrane). The molecular weight of LC3B-II is greater than that of LC3B-I. However, due to its hydrophobicity, LC3B-II migrates faster in SDS-PAGE, and therefore, has a lower apparent molecular weight.
To prepare whole-cell extracts, cells were washed 3 times using cold PBS, scraped from the dishes, and suspended in protein extraction buffer containing 1% Triton X-100 (Amresco), 100 mM Tris-HCl, 10 mM NaCl, 10% glycerol, 1 mM sodium orthovanadate (Sigma-Aldrich), 50 mM sodium fluoride (Sigma-Aldrich), and 1 mM phenylmethylsulfonyl fluoride (PMSF; Sigma-Aldrich). After incubation on ice for 30 min, lysates were centrifuged and proteins in the supernatants were quantified using the Bradford Protein Assay Reagent (Bio-Rad). Protein samples were separated via 10% SDS-PAGE and transferred to nitrocellulose membranes ([…]; Protran, Newton, NJ, USA). The membranes were blocked using 5% nonfat dry milk and 0.1% Tween-20 in Tris-buffered saline and probed with the primary antibody. […]

[3] = test system: influenza A/PR/8/34 (H1N1)
Atg-5, Atg-7, and LC3B = test: RT-PCR of autophagy-related genes; assay type: cell-based, canine; settings: 50 μM
Experimental: MDCK cells were seeded in 6-well plates and incubated overnight for 80% confluence. After the medium was removed, the cells were washed twice with PBS and infected with the virus as described in the antiviral assay section. Total RNA was isolated using Trizol (Invitrogen, Waltham, MA, USA) according to the manufacturer’s instructions. Synthesis of cDNA was performed using 5 μg of total RNA with MMLV reverse transcriptase (Promega, Madison, WI, USA). The primer sequences used in our study were as follows: HA (forward, 5′-[…]-3′;reverse,5′-[…]-TGACACT-3′); NA (forward, 5′-[…]-3′; reverse,5′-[…]-3); ATG-5 (forward, 5′-[…]-AACAG-3′; reverse, 5′-[…]-3′); ATG-7 (forward, 5′-[…]-3′; reverse, 5′-[…]-A-3′); LC3B (forward, 5′-[…]-3′; reverse, 5′-CTGG-[…]-3′); and GAPDH (forward, 5′-[…]-GGAGC-3′; reverse, 5′-[…]-3′).The expression of mRNA was normalized to that of the control housekeeping gene, GAPDH.

[4] = Cytotoxicity assay (EZ-Cytox) in MDCK cells; assay type: cell-based, canine; settings: dog; MDCK cells, 48 hr
Experimental: To determine the 50% cytotoxic concentration (CC50) for each of the tested flavonoid compounds, MDCK cells were seeded onto 96-well plates (NUNC, Penfield, NY, USA) at a density of 1 × 10^4 cells per well and incubated overnight for 80% confluence. MDCK cells were washed twice with PBS and the culture medium was replaced with medium containing serially diluted flavonoids (concentrations from 10μM up to 300 μM) for 48 hr at 37°C in a 5% CO2atmosphere. After the incubation period, the flavonoid-containing media was replaced with new media containing 10% EZ-Cytox (Daeil Lab Service, Seoul, South Korea), and the cells were incubated in the dark for 3 hr at 37°C in a 5% CO2 atmosphere. The optical density was measured at 480 nm using an x-Mark spectrophotometer (Bio-Rad, Hercules, CA, USA). Cytotoxicity was estimated by comparing the cell survival rate of the flavonoids-treated cells and the DMSO-treated cells with the control (virus-untreated) cells. The control cell values were arbitrarily set as the 100% survival rate. The treated cells values were normalized to the control cell values. The calculation of CC50 was carried out as described in detail in S1 Text.
The 50% cytotoxic concentration (CC50) was calculated according to the following equation:
Cytotoxicity (%) = [100-(ODt/ODs)] x100
ODt: The optical density (OD) of cells treated with the tested flavonoids.
ODs: The OD of cells treated with the control solvent (0.2 % DMSO).
After obtaining the results, we calculated the concentration that induces 50% cell death using the following equation:
(X2 - X1) X (50-Y1) / (Y2 - Y1) + X1. Where, X1 represents the lower concentration used in this experiment, while X2 represents the higher concentration. Y1 represents the mean of the percentage of the viable cells at X1 concentration. On the other hand, Y2 represents the mean of the percentage of the viable cells at X2 concentration.”

T1 sequence (P03468 whole entry): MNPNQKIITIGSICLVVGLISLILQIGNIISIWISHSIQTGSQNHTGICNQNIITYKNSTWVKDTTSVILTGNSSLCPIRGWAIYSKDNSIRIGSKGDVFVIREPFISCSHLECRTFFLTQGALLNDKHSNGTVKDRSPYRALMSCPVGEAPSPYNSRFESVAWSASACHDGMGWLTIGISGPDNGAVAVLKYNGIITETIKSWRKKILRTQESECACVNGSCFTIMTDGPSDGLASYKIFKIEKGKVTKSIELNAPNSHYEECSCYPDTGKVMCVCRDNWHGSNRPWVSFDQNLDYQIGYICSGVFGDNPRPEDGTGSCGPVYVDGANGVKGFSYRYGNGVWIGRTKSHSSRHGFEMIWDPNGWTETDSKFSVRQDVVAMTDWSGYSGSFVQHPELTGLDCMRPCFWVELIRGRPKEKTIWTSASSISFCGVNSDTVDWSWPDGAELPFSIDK

Question: Which NA activity [1] does the source give for `COc1cc(-c2oc3cc(O)cc(O)c3c(=O)c2O)ccc1O` [Isorhamnetin, isorhamnetin] here?
Answer: The NA activity was “significantly inhibited”.

Question: And the selectivity ratio ([2]; Co-treatment (2 hr))?
Answer: The selectivity ratio was greater than 9.

Question: And the selectivity ratio ([2]; Post-treatment)?
Answer: The selectivity ratio was greater than 12.

Question: And the “lipidation of LC3B-II” value (LC3B)?
Answer: The value was “significantly suppressed”.

Question: And the “cell viability after viral infection” value [3]?
Answer: Its value is “increased cell viability in comparison with quercetin treatment”.

Question: What about the viral infection ([3]; 50 μM, co-treatment for 2 hr) of the same compound?
Answer: The viral infection was “significantly inhibited”.

Question: What about the “influenza virus-induced cell death” value ([3]; post-treatment) of the same compound?
Answer: The value was “apparent suppression”.

Question: And the “virus-induced overexpression of autophagy-related genes Atg-5, Atg-7, and LC3B” value (Atg-5, Atg-7, and LC3B)?
Answer: The value was “inhibited”.

Question: What about the CC50 at 48 h [4] of the same compound?
Answer: The CC50 at 48 h was greater than 280 µM.
